From patent publication US6706763B1, “O-anisamide derivatives” (Kyorin Pharmaceutical Co., Ltd., priority 1999, dated 2004)

molecular target: T1, ligand binding domain of human type PPARα fused with DNA-binding domain of GAL4 (Homo sapiens, UniProt Q07869); experiment: Test of transcriptional activation on peroxisome proliferator-activated receptor α (GAL4 chimera luciferase reporter in CHO cells); format: cell-based; conditions: CHO cells cotransfected with GAL4-human PPARα LBD receptor plasmid and luciferase reporter; luciferase activity after 24 hours
T1 construct: expressed in transfected cells; host or cells: CHO cells
T1 sequence (Q07869 239-466 limits assumed): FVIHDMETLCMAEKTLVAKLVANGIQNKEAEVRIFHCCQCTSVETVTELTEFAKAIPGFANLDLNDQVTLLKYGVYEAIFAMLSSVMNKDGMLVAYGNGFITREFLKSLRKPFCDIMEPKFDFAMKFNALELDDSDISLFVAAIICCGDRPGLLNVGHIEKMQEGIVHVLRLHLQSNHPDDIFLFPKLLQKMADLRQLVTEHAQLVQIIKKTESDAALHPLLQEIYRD
From the text: Test of transcriptional activation on peroxisome proliferator-activated receptors α and γ
To CHO cells cultured in a Ham's F-12 medium with 10% fetal calf serum, receptor plasmid that expresses fused protein of DNA-binding domain of GAL4 being transcription factor of yeast with ligand binding domain of human type PPARs α and γ (Biochemistry, 1993, 32, 5598), firefly luciferase reporter plasmid (Promega Corp.) that is activated by GAL4 and sea shiitake mushroom luciferase plasmid (Promega Corp.) for internal standard were cotransfected with lipofectamine. Thereafter, testing compound dissolved into dimethyl sulfoxide (DMSO) (final concentration of DMSO 0.1%) and control drug were adjusted with Ham's F-12 medium containing 10% defatted fetal calf serum to culture. After 24 hours, the luciferase activity was measured.

| Compound | EC50 [µM] |
| --- | --- |
| CCCCC/C=C\C/C=C\C=C\[C@@H](O)C/C=C\CCCC(=O)O [(8S)-HETE, 8-hydroxyeicosatetraenoic acid, reference compound] | 1.3 |
| COc1ccc(CC(SC)C(N)=O)cc1C(=O)NCc1ccc(C(F)(F)F)cc1 (stereo not shown) [Example 3, 5-[2-Carbamoyl-2-(methylthio)ethyl]-2-methoxy-N-(4-trifluoromethylbenzyl)benzamide] | 2.1 |
| COc1ccc(CC(SC)C(=O)O)cc1C(=O)NCc1ccc(C(F)(F)F)cc1 (stereo not shown) [Example 7, 3-[4-Methoxy-3-[N-(4-trifluoromethylbenzyl)]carbamoylphenyl]-2-(methylthio)propionic acid] | 1.2 |

tested on: not given; experiment: not given; conditions: not given

| melting point [°C] | Compound |
| --- | --- |
| 152.5 to 153.5 | COc1ccc(CC(SC)C(N)=O)cc1C(=O)NCc1ccc(C(F)(F)F)cc1 (stereo not shown) [Example 3, 5-[2-Carbamoyl-2-(methylthio)ethyl]-2-methoxy-N-(4-trifluoromethylbenzyl)benzamide] |
| 219 to 220 | COc1ccc(CC(C(N)=O)S(C)(=O)=O)cc1C(=O)NCc1ccc(C(F)(F)F)cc1 (stereo not shown) [Example 5, 5-[2-Carbamoyl-2-(methylsulfonyl)ethyl]-2-methoxy-N-(4-trifluoromethylbenzyl)benzamide] |
| 159 to 161 | COc1ccc(CC(S)C(N)=O)cc1C(=O)NCc1ccc(C(F)(F)F)cc1 (stereo not shown) [Example 6, 5-(2-Carbamoyl-2-mercaptoethyl)-2-methoxy-N-(4-trifluoromethylbenzyl)benzamide] |
| 158 to 159 | COc1ccc(CC(C(=O)O)S(C)(=O)=O)cc1C(=O)NCc1ccc(C(F)(F)F)cc1 (stereo not shown) [Example 9, 3-[4-Methoxy-3-[N-(4-trifluoromethylbenzyl)]carbamoylphenyl]-2-(methylsulfonyl)propionic acid] |

Further lines, the compound ahead of its results:

| Compound | melting point [°C] |
| --- | --- |
| COc1ccc(C(=O)O)cc1C(=O)NCc1ccc(C(F)(F)F)cc1 [Example 1, 4-Methoxy-3-[N-(4-trifluoromethylbenzyl)carbamoyl]benzoic acid] | 235.5 to 236.5 |
| COc1ccc(CC(=O)O)cc1C(=O)NCc1ccc(C(F)(F)F)cc1 [Example 2, 4-Methoxy-3-[N-(4-trifluoromethylbenzyl)]carbamoylphenylacetic acid] | 167 to 168 |
| COc1ccc(CC(C(N)=O)[S+](C)[O-])cc1C(=O)NCc1ccc(C(F)(F)F)cc1 (stereo not shown) [Example 4, 5-[2-Carbamoyl-2-(methylsulfinyl)ethyl]-2-methoxy-N-(4-trifluoromethylbenzyl)benzamide] | 170 to 171 |
